Patent US11253497B2, “Use of derivatives of polyunsaturated fatty acids as medicaments” (Lipopharma Therapeutics, S.L., priority 2009, dated 2022)

Columns and labels:
[1] = tested on: 3T3 cells; experiment: Percentage of total PUFAs in membranes of 3T3 cells treated with fatty acids (gas chromatography); assay type: cell-based; details: 100 μM, 48 hours, mean ± SEM of four measures, control 32.4 ± 2.1
From the text: To perform these experiments, membranes were extracted and total fatty acids were obtained by hydrolysis in basic medium. Methanolic bases of these fatty acids were quantified by gas chromatography. The data shown are averages of four independent measures of PUFA's mass divided by the total fatty acids and expressed as a percentage. It is also shown is standard error of the mean.
The control corresponds to a culture without the presence of added natural or synthetic fatty acids. Cells in their natural form present PUFAs in their membranes, but the presence in the medium of the D-PUFA molecules of the invention increases these levels of PUFAs in the cell membrane.

[2] = tested on: COX-2; experiment: Expression of COX-2 in LPS-stimulated monocytes in culture; assay type: cell-based, human; details: positive control with LPS 100%
From the text: FIG. 5A also presents a drawing showing the COX-2/COX-1 relationship as % of control (Y axis) for the following compounds (X-axis): OOA (2-hydroxy-oleic acid), OLA (182A1), OALA (183A1), OGLA (183A2), OARA (204A1), OEPA (205A1), ODHA (226A1). […] The reduction of this factor is directly related to the anti-inflammatory medication. The compounds are the same as in the left pane.
(§1) Cyclooxygenase (COX) is an enzyme that can bind to membranes, taking certain lipids from there and catalyze its conversion into molecules that can have inflammatory activity. The binding of this enzyme to membrane lipids is due in part to the membrane lipid structure. The increased activity of COX 1 and 2 isoforms has been associated with the etiopathology of a number of inflammatory diseases by […] arachidonic acid metabolism to produce pro-inflammatory lipid mediators. The D-PUFA compounds of the present invention produced a series of cellular signals that alter the metabolism of arachidonic acid and, as a result, they inhibit the activity and expression of COX in monocytes in culture (Table 14 and FIG. 5A). […] For this purpose, C57BL6/J mice were treated with the various derivatives (200 mg/kg, p.o.,) after inducing an inflammatory reaction in them by intraperitoneal injection of 20 μg of bacterial lipopolysaccharide (LPS).
Inhibition of COX-2 expression in monocytes. Percentages of inhibition (compared to the positive control in the presence of LPS, 100%) of COX-2 protein levels (expression) by the various fatty acid derivatives.

[3] = tested on: breast cancer cells MDA-MB-231; experiment: Growth of breast cancer cells MDA-MB-231; assay type: cell-based; details: 72 hours of incubation
In short: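 Human cancer cells in RPMI 1640 with 10% FBS at 37 °C, 5% CO2, exposed to D-PUFAs or PUFAs, then counted. Breast MDA-MB-231 cells run under the same conditions; values are means of three independent experiments.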

[4] = tested on: apolipoprotein AI (apoA-I); experiment: Levels of apoA-I in SHR rats (RT-PCR); assay type: in vivo, rat; details: 200 mg/kg day p.o., 30 days, before treatment 100%
In short: (§2)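 SHR rats dosed orally at 200 mg/kg day for 30 days against water vehicle. At study end, blood pressure taken non-invasively by tail cuff and apoA-I assessed as gene expression by RT-PCR.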

[5] = Lamellar-to-hexagonal (HII) transition temperature in DEPE model membranes by Differential Scanning Calorimetry; assay type: physicochemical; details: for Transition temperature (lamellar to HII): DEPE (4 mM), 200 μM compound, series A, control 64.5; for Temperature of lamellar-to-hexagonal transition: DEPE membranes, DEPE:D-PUFA 10:1 (mol:mol)
Description: The transition temperature was determined by Differential Scanning Calorimetry. The proportion DEPE:D-PUFA was 10:1 (mol:mol) in all cases. Lamellar-to-hexagonal transition is an important parameter that reflects relevant signalling properties of cell membranes. […] When this occurs, certain peripheral membrane proteins (such as G proteins, protein kinase C or Ras protein) can more easily bind to the membrane, while others have a poor interaction (e.g., the Gα-protein), so changes in the HII transition temperature are important in regulating cellular functions related to health and human therapy (Escriba et al., 1995, Vogler et al., 2004; Escriba, 2006).
Control values correspond to model membranes in the absence of fatty acids. The reduction in HII transition temperature obtained by using the D-PUFA of the invention indicates an increased induction of membrane discontinuities, generating anchoring sites in the membrane for peripheral proteins and leads to better regulation of cell signalling and, therefore, greater effectiveness in the control of certain diseases.

[6] = tested on: brain cancer cell (glioma) U118; experiment: Brain cancer (glioma) U118 cell growth; assay type: cell-based; details: 72 hours of incubation
In short: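 Human cells in RPMI 1640 with 10% FBS at 37 °C, 5% CO2, exposed to D-PUFAs or PUFAs, then counted. glioma U118 cells run under the same conditions; values are means of three independent experiments.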

[7] = tested on: heterotrimeric Gi1 protein; experiment: Binding of heterotrimeric Gi1 protein to model membranes (centrifugation, immunoblotting); details: phosphatidylcholine:phosphatidylethanolamine (6:4) 2 mM phospholipid, 0.1 μM D-PUFA; control 100 ± 5; in % (unit assumed)
From the text: The net result is a regulation of cell signalling leading to the reversal of various pathological processes, as shown later. […] The Control is a sample of model membranes in the absence of fatty acids.

[8] = tested on: lung cancer cells A549; experiment: Growth of lung cancer cells A549 (IC50); assay type: cell-based, human; details: 72 hours of incubation
In short: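 Human A549 lung cancer cells in RPMI 1640 with 10% FBS at 37 °C, 5% CO2, exposed to D-PUFAs or PUFAs, then counted. values are means of three independent experiments.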

[9] = tested on: P19 cells; experiment: NMDA-induced neuronal death in P19 cells; assay type: cell-based; details: NMDA alone 100% death, control without NMDA 0%; negative values = proliferation
[10] = tested on: Spontaneously Hypertensive Rats (SHR); experiment: Blood pressure of SHR rats (cuff-tail method); assay type: in vivo, rat; details: 200 mg/kg day p.o., 30 days, before treatment 214 mmHg
In short: as §2

[11] = Serum cholesterol, triglycerides and glucose in SHR rats (colorimetric); assay type: in vivo, rat; details: 200 mg/kg daily p.o., 28 days, untreated rats 100%
Description: In a separate experimental series, SHR rats were treated with various compounds of the present invention (200 mg/kg daily, 28 days, p.o.) and the levels of cholesterol, triglycerides and glucose in serum were measured by colorimetric methods. It was observed that these compounds induce significant (and in many cases marked) reductions in the levels of these metabolites (Table 16).
Values are expressed as percent, and in untreated (control) rats values were always considered as 100%.

[12] = tested on: HepG2 cells; experiment: Liver cancer (HepG2 cells); assay type: cell-based; details: Homo sapiens, HepG2; 72 hours
Description: These charts show the antitumor efficacy of the compounds of this invention against the growth of breast cancer cells, brain (glioma), and lung cancer. […] The other experimental conditions are identical to those described in the preceding paragraph.
(§3) Overall, it may be seen that the series of compounds A and B are the best, so the effectiveness of these series against the development of leukaemia and liver cancer (Tables 9 and 10) was tested.

[13] = tested on: Jurkat cells; experiment: Human leukaemia (Jurkat cells); assay type: cell-based; details: 72 hours
Description: as §3

[14] = tested on: α-synuclein; experiment: Expression of α-synuclein in neuronal cultures (cells P19); assay type: cell-based; details: untreated cells 100%
[15] = tested on: TNF-α; experiment: Production of TNF-α in serum of LPS-injected C57BL6/J mice; assay type: in vivo; details: LPS 20 μg i.p. (100%), 200 mg/kg p.o.
From the text: as §1

Structure (SMILES)	Percentage of total PUFA [1] [%]	COX-2 protein levels (expression), percentages of inhibition compared to positive control [2] [%]	IC50 ([3]; Homo sapiens, MDA-MB-231) [µM]	Levels of apoA-I [4] [%]	Transition temperature (lamellar to HII) [5] [°C]	IC50 [6] [µM]	G protein binding [7]	IC50 ([8]; Homo sapiens, A549) [µM]	Neuronal death (P19 cells) after treatment with NMDA [9] [%]	Blood pressure [10] [mm Hg]	Cholesterol in serum (top number) [11] [%]	Glucose in serum (bottom number) [11] [%]	Triglycerides in serum (central number) [11] [%]	IC50 [12] [µM]	IC50 ([13]; Homo sapiens, Jurkat) [µM]	Expression of α-synuclein [14] [%]	Production of TNF-α in serum [15] [%]	IC50 [3] [µM]	Temperature of lamellar-to-hexagonal transition [5] [°C]	IC50 [8] [µM]	other results
CCCCCC=CCC=CCCCCCCC(O)C(=O)O (centres unmarked) [182A1, 2-hydroxy-9,12-octadecadienoic acid]	42.3 ± 3.1	24	388	146	51.8	197	312 ± 12	944	−60	204	78	84	91	212	713	50	64	–	–	–	–
CCCCCC=CCC=CCCCCCCC(O)C(=O)[O-].[Na+] (centres unmarked) [182B1]	–	39	–	178	–	198	–	–	−62	201	89	87	72	–	–	61	79	379	52.1	196	IC50 [13]: 377 µM
CCC=CCC=CCC=CCCCCCCC(O)C(=O)O (centres unmarked) [183A1, 2-hydroxy-9,12,15-octadecatrienoic acid]	42.8 ± 2.2	20	380	134	51.6	397	328 ± 9	200	−55	201	76	87	81	380	198	45	70	–	–	–	–
CCCCCC=CCC=CCC=CCCCC(O)C(=O)O (centres unmarked) [183A2, 2-hydroxy-6,9,12-octadecatrienoic acid]	44.0 ± 2.6	23	347	311	50.1	372	17 ± 357	192	−70	189	79	82	78	380	184	40	71	–	–	–	–
CCCCCC=CCC=CCC=CCCCC(O)C(=O)[O-].[Na+] (centres unmarked) [183B2]	–	29	–	285	–	377	–	–	−66	182	77	86	76	–	–	38	78	156	51	197	IC50 [13]: 184 µM
CCCCCC=CCC=CCC=CCC=CCCC(O)C(=O)O (centres unmarked) [204A1, 2-hydroxy-5,8,11,14-eicosatetraenoic acid]	45.5 ± 2.9	17	381	131	49.3	197	385 ± 22	243	−70	205	72	85	77	192	62	41	24	–	–	–	–
CCCCCC=CCC=CCC=CCC=CCCC(O)C(=O)[O-].[Na+] (centres unmarked) [204B1]	–	28	–	144	–	396	–	–	−71	202	71	89	69	–	–	36	26	345	50.2	413	IC50 [13]: 104 µM
